In patent US8859022B2, “Antihypertensive agents” (Bourbon Corporation, priority 2011, dated 2014):
Where two headings read alike, the source gives them in different places.

Key:
[1] = Literature oral absorption of apple procyanidins (J. Agric. Food Chem., 54, 884-892, 2006); type: in vivo, rats; details: worked out from literature values, A in mg/kg
Source text: Studies on oral absorbability of various kinds of proanthocyanidins have reported that oligomers with a low degree of polymerization are efficiently orally absorbed (see R. R. Holt, S. A. Lazarus, M. C. Sullards, Q. Y. Zhu, D. D. Schramm, J. F. Hammerstone, C. G. Fraga, H. H. Schmitz and C. L. Keen, Procyanidin dimer B2 [epicatechin-(4β-8)-epicatechin] in human plasma after the consumption of a flavanol-rich cocoa. Am. J. Clin. Nutr. 2002, 76, p. 798-804. T. Shoji, S. Masumoto, N. Moriichi, H. Akiyama, T. Kanda, Y. Ohtake, Y. Goda. Apple procyanidin oligomers absorption in rats after oral administration: Analysis of procyanidins in plasma using the porter method and High-Performance Liquid Chromatography/Tandem Mass Spectrometry. J. Agric. Food Chem. 2006, 54, p. 884-892).

[2] = Apple, literature values; cited from earlier work
[3] = Oral absorbability evaluation test of proanthocyanidins extracted from Boysenberry seed (LC/MS/MS of blood plasma); type: in vivo, Wistar rats; details: Boysenberry seed (present invention); for B/A (blood concentration after 2 hours / administration quantity): A in mg/kg, B in μg/mL; for Blood concentration after 2 hours B: partitioned concentrate of seed extract 1000 mg/kg oral, Wistar rats, plasma
Description: The test animal used was Wistar rats (males, aged 9 weeks, with initial weight of 190 to 210 g, obtained from Japan SLC, Inc.). After fasting for 12 hours, the Wister rats were forcefully orally administered each 1000 mg/kg of the partitioned concentrate of seed extract or the partitioned concentrate of thermally-treated seed extract obtained in Example 1. Then, every 1, 2, 4, and 6 hours after the administration, the rats were killed to collect the whole blood. Each whole blood was centrifuged for 10 minutes at 4° C. at 2,000×g to obtain blood plasma as a supernatant. To 1 mL of each blood plasma were added 30 μL of 50% formic acid and 100 μL of 10 mM ascorbic acid solution to mix together, and to 1 mL of the mixed blood plasma solution were added 50 μL of (1 μg of) a catechol solution as an internal standard reagent and 30 μL of phosphoric acid to prepare each sample for analysis. Regarding the samples, measurements of a procyanidin dimer, a propelargonidin dimer, a procyanidin trimer, and a propelargonidin trimer were carried out at molecular weights of 577/289, 561/289, 865/289, and 849/289, using a liquid chromatography-mass spectrometry (LC/MS) (Shimadzu Prominence UFLC manufactured by Shimadzu Corp.; with ODS column; gradient elution with formic acid, methanol, and water) and MS/MS (API 3200 manufactured by Applied Biosystems Co. Ltd., negative-ion mode) to determine the quantities of the proanthocyanidins in the blood plasma. […] Additionally, FIG. 5 and Table 3 show LC/MS charts of the measurements of proanthocyanidin dimer and trimer components in the blood plasma after 2 hours of the administration of the partitioned concentrate of seed extract.

B/A (blood concentration after 2 hours / administration quantity) [1] | B/A (blood concentration after 2 hours / administration quantity) [3] | Blood concentration after 2 hours B [3] [ng/mL] | SMILES | Blood concentration after 2 hours B [2] [ng/mL]
2.4 (×10^−6) (kg/ml) | – | – | Oc1cc(O)c2c(c1)O[C@H](c1ccc(O)c(O)c1)[C@H](O)[C@H]2c1c(O)cc(O)c2c1O[C@H](c1ccc(O)c(O)c1)[C@@H](O)C2 [PC dimer B1] | 120
1.9 (×10^−6) (kg/ml) | 25.0 (×10^−6) (kg/ml) | 200 | Oc1cc(O)c2c(c1)O[C@H](c1ccc(O)c(O)c1)[C@H](O)[C@H]2c1c(O)cc(O)c2c1O[C@H](c1ccc(O)c(O)c1)[C@H](O)[C@H]2c1c(O)cc(O)c2c1O[C@H](c1ccc(O)c(O)c1)[C@H](O)C2 [PC trimer C1] | 120
– | 30.0 (×10^−6) (kg/ml) | 120 | Oc1cc(O)c2c(c1)O[C@H](c1ccc(O)c(O)c1)[C@@H](O)[C@@H]2c1c(O)cc(O)c2c1O[C@H](c1ccc(O)c(O)c1)[C@@H](O)C2 [PC dimer B3, Procyanidin B3] | –
2.5 (×10^−6) (kg/ml) | – | – | Oc1cc(O)c2c(c1)O[C@H](c1ccc(O)c(O)c1)[C@H](O)[C@H]2c1c(O)cc(O)c2c1O[C@H](c1ccc(O)c(O)c1)[C@H](O)C2 [PC dimer B2, epicatechin-(4β-8)-epicatechin] | 230
– | 32.9 (×10^−6) (kg/ml) | 560 | Oc1cc(O)c2c(c1)O[C@H](c1ccc(O)c(O)c1)[C@@H](O)[C@@H]2c1c(O)cc(O)c2c1O[C@H](c1ccc(O)c(O)c1)[C@H](O)C2 [PC dimer B4, Procyanidin B4] | –
